Experimental data taken from PMC7562955 (Nature Communications, 2020).

Biological target: T1, human TLR8 (Homo sapiens, UniProt Q9NR97)
T1 construct: host or cells: HEK293 (TLR8/NF-κB/SEAPorter)
T1 sequence (Q9NR97 27-1041): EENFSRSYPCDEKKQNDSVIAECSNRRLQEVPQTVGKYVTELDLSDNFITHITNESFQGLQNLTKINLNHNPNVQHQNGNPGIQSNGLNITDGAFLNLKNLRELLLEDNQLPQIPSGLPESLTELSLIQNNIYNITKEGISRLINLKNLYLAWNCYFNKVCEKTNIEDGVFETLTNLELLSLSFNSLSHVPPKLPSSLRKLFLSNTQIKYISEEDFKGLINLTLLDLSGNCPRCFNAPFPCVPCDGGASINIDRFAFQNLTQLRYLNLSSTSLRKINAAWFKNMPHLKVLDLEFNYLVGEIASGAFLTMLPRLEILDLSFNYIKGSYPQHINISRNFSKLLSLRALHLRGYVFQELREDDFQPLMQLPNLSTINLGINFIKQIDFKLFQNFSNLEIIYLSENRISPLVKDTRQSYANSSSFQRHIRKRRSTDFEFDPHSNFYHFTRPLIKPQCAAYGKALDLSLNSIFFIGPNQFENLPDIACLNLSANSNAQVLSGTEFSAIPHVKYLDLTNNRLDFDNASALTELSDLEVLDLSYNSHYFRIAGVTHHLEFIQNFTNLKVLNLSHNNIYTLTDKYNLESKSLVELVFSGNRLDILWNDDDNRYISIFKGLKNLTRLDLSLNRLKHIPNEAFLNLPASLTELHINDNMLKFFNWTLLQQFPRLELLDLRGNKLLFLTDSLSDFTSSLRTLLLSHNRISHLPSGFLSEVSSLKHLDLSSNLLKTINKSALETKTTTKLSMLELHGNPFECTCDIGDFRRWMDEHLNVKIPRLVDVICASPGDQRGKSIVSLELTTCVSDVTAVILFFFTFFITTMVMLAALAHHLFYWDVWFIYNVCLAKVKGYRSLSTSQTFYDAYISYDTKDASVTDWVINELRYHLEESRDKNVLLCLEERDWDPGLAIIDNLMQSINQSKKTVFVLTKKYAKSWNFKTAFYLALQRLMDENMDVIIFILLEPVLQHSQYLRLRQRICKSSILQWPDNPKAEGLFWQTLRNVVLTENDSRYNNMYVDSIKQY
Assay: Human TLR8 reporter gene inhibitory activity assay (NF-κB/SEAP HEK293)
Format: cell-based
Set-up: key to human TLR8 activity, reporter signal: SEAP activity as absorbance at 405 nm
Conditions: for human TLR8 activity, reporter signal: R848 30 μM
Method: Compounds were dissolved in dimethyl sulfoxide. Before stimulation with compound, Human TLR7 reporter cell line (TLR7/NF-κB/SEAPorter^TM HEK293 cell, Novus Biological, USA), human TLR8 reporter cell line (TLR8/NF-κB/SEAPorter^TM HEK293 cell, Novus Biological), and human TLR9 reporter cell line (TLR9/NF-κB/SEAPorter^TM HEK293 cell, Novus Biological) were seeded in 96-well microtiter plate (AGC techno glass, Japan) at 5 × 10^4 cells/well in DMEM (GIBCO, United Kingdam) with 10 % fetal bovine serum (GIBCO), and 10 ug/ml Blastcidin S HCl (GIBCO) and incubated at 37 °C in 5% CO2. […] The plates were then incubated an additional 20 ± 1 h at 37 °C in 5% CO2 and then the secreted embryonic alkaline phosphatase (SEAP) activity was measured as activation of human TLR7, 8, and 9. The SEAP activity was evaluated as follows: pNPP (Invitrogen, USA) was added to the incubated sample (50 μl/well); after 15 min, 4 M sodium hydroxide solution (nacalai tesque, Japan) was added thereto (50 μl/well) to quench the reaction; and the absorbance of each sample was measured at 405 nm with microplate reader SpectraMax M4 (Molecular Devices, USA).

Row | SMILES | inhibition of TLR8 | human TLR8 activity, reporter signal (compound 0.0001 nM (as headed)) | human TLR8 activity, reporter signal (compound 0.001 nM (as headed)) | human TLR8 activity, reporter signal (compound 0.003 nM (as headed)) | human TLR8 activity, reporter signal (compound 0.01 nM (as headed)) | human TLR8 activity, reporter signal (compound 0.03 nM (as headed)) | human TLR8 activity, reporter signal (compound 0.1 nM (as headed)) | human TLR8 activity, reporter signal (compound 0.3 nM (as headed)) | human TLR8 activity, reporter signal (compound 1 nM (as headed)) | human TLR8 activity, reporter signal (compound 3 nM (as headed)) | human TLR8 activity, reporter signal (compound 10 nM (as headed)) | human TLR8 activity, reporter signal (compound 30 nM (as headed)) | human TLR8 activity, reporter signal (compound 100 nM (as headed))
1 | CCCCOc1nc(N)c2nc(-c3cccnc3)n(Cc3ccccc3)c2n1 [Cpd-5] | without causing any inhibition | 2.52 | 2.344 | 2.316 | 2.3178 | 2.3193 | 2.309 | 2.404 | 2.342 | 2.269 | 2.216 | 2.0417 | 2.1673
2 | CCOc1nc(N)c2nc(-c3cncc(F)c3)n(Cc3ccc(CN4C[C@@H]5C[C@H]4CN5C)cc3)c2n1 [Cpd-6] | – | 2.3942 | 2.34 | 2.276 | 2.199 | 2.181 | 2.241 | 2.31 | 2.218 | 2.159 | 2.04 | 1.859 | 1.331
3 | CCOc1nc(C)c2nc(-c3cncc(F)c3)n(Cc3ccc(CN4C[C@@H]5C[C@H]4CN5C)cc3)c2n1 [Cpd-7] | – | 2.3942 | 2.221 | 2.201 | 2.199 | 2.25 | 2.186 | 2.297 | 2.272 | 2.178 | 2.071 | 1.909 | 1.678
